# Reference: ChEMBL document CHEMBL4837240 (J Med Chem, 2021)
# Active and inactive are the calls of the source. No cut-off for these calls is given here.
# Assays:
# [1] = Toxicity in BALB/c mouse xenografted with MDA-MB-231 cells assessed as AST level in blood at 300 mg/kg, po; assay type: organism-based; details: in vivo
# MDA-MB-231 [2] = assay: Anticancer activity against human MDA-MB-231 cells assessed as cell viability incubated for 48 hrs by MTT assay; details: MDA-MB-231, 48 h
# Misshapen-like kinase 1 [3] = molecular target: T1, Misshapen-like kinase 1 (Homo sapiens, UniProt Q8N4C8); assay: Inhibition of human MINK assessed as residual kinase activity at 1 uM relative to control
# Target sequence in this assay (Q8N4C8 whole entry, looked up): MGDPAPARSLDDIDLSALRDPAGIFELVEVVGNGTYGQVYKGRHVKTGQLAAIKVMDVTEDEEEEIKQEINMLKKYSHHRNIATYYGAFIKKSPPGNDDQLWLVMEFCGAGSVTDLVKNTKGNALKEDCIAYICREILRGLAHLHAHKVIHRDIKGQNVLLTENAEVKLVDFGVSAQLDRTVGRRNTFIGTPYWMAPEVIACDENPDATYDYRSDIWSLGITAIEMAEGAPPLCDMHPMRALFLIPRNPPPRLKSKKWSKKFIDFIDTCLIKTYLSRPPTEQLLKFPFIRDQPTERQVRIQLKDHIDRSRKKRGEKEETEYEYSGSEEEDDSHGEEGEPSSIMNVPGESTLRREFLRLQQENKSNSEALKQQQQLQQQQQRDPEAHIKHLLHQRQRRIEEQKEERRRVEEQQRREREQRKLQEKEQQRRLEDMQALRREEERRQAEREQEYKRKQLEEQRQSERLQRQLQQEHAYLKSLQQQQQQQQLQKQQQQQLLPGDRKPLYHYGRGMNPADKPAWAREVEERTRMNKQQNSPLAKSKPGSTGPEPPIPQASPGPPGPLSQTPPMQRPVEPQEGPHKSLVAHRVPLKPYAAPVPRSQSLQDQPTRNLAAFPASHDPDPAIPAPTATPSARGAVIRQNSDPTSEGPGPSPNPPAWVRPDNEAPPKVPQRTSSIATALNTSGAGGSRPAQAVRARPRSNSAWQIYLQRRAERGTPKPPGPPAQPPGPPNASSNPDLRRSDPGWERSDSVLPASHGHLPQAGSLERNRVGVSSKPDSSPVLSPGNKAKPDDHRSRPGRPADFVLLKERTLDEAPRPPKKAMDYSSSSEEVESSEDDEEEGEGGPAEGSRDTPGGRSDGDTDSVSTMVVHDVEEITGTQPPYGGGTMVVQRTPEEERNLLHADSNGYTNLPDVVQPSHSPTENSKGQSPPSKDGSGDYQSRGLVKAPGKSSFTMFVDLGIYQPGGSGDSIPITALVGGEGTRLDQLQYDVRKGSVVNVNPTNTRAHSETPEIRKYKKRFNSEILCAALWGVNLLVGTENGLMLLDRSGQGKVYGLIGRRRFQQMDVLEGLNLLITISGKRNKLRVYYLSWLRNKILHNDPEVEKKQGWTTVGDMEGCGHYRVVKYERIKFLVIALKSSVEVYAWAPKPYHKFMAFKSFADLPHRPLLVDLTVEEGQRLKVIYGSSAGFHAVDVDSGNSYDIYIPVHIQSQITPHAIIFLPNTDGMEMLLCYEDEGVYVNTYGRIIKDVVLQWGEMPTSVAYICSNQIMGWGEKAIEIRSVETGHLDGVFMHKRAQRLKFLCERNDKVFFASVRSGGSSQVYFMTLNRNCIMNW
# [4] = molecular target: T2, Maternal embryonic leucine zipper kinase (Homo sapiens, UniProt Q14680); assay: Inhibition of human MELK assessed as residual kinase activity at 1 uM relative to control
# Target sequence in this assay (Q14680 whole entry, looked up): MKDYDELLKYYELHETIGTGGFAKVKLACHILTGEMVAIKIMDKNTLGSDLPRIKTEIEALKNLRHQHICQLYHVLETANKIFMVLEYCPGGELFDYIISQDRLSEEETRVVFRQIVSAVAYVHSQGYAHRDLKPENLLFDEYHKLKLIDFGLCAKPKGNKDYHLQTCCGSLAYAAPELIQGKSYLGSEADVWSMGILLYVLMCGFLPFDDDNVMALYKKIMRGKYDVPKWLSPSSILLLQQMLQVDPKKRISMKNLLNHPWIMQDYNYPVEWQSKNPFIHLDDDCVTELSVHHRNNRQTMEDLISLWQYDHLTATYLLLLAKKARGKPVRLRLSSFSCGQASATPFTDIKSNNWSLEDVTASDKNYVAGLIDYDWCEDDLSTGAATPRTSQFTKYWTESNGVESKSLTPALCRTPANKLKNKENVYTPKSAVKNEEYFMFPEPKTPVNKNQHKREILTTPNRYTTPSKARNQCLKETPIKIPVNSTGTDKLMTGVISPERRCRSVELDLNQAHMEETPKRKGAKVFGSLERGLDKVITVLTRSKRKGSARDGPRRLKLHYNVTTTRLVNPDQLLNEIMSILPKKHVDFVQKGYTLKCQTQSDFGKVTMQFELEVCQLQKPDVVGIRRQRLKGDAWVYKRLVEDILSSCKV
# [5] = molecular target: Tyrosine-protein kinase BTK (Homo sapiens, UniProt Q06187); assay: Inhibition of human BTK assessed as residual kinase activity at 1 uM relative to control
# [6] = molecular target: T3, Vascular endothelial growth factor receptor 1 (Homo sapiens, UniProt P17948); assay: Inhibition of human FLT1/VEGFR1 assessed as residual kinase activity at 1 uM relative to control
# [7] = molecular target: T4, Vascular endothelial growth factor receptor 3 (Homo sapiens, UniProt P35916); assay: Inhibition of human FLT4/VEGFR3
# Misshapen-like kinase 1 [8] = molecular target: T1, Misshapen-like kinase 1; assay: Inhibition of human MINK
# Target sequence in this assay (Q8N4C8 whole entry): as the sequence (Q8N4C8 whole entry, looked up) above
# [9] = molecular target: T2, Maternal embryonic leucine zipper kinase; assay: Inhibition of human MELK
# Target sequence in this assay (Q14680 whole entry): as the sequence (Q14680 whole entry, looked up) above
# [10] = molecular target: T3, Vascular endothelial growth factor receptor 1; assay: Inhibition of human FLT1/VEGFR1
# [11] = Antiproliferative activity against VEGF-C-induced human dermal lymphatic endothelial cells assessed as cell viability incubated for 48 hrs by CCK-8 assay; assay type: functional, tissue-based; details: HDLEC
# HDLEC [12] = assay: Inhibition of cell migration in VEGF-C-induced human dermal lymphatic endothelial cells assessed as cell migration at 100 nM incubated for 24 hrs by inverted microscopy based by scratch wound healing assay; assay type: functional, tissue-based
# HDLEC [13] = assay: Antimigratory activity against VEGF-C-induced human dermal lymphatic endothelial cells assessed as cell migration at 100 nM incubated for 12 hrs by inverted microscopy based by transwell assay; assay type: functional, tissue-based
# HDLEC [14] = assay: Downregulation of MMP2 protein expression in human dermal lymphatic endothelial cells incubated for 24 hrs by Western blot analysis; assay type: functional, tissue-based
# [15] = molecular target: T4, Vascular endothelial growth factor receptor 3; assay: Inhibition of VEGFR3 in human dermal lymphatic endothelial cells assessed as inhibition of STAT5 phosphorylation incubated for 24 hrs by Western blot analysis; details: HDLEC
# [16] = molecular target: T4, Vascular endothelial growth factor receptor 3; assay: Inhibition of VEGFR3 in human dermal lymphatic endothelial cells assessed as inhibition of AKT phosphorylation incubated for 24 hrs by Western blot analysis; assay type: tissue-based; details: HDLEC
# [17] = molecular target: T4, Vascular endothelial growth factor receptor 3; assay: Inhibition of VEGFR3 in human dermal lymphatic endothelial cells assessed as inhibition of ERK1/2 phosphorylation incubated for 24 hrs by Western blot analysis; details: HDLEC
# MDA-MB-436 [18] = assay: Inhibition of colony formation in human MDA-MB-436 cells at 2.5 uM incubated for 24 hrs by clonogenic assay; assay type: functional
# MDA-MB-231 [19] = assay: Induction of apoptosis in human MDA-MB-231 cells assessed as apoptotic cells at 2.5 to 5 uM incubated for 48 hrs by flow cytometry (reference value: 7.2%); assay type: functional; details: dose 2.5-5 µM
# MDA-MB-436 [20] = assay: Induction of apoptosis in human MDA-MB-436 cells assessed as apoptotic cells at 5 uM incubated for 48 hrs by flow cytometry; assay type: functional
# MDA-MB-436 [21] = assay: Induction of apoptosis in human MDA-MB-436 cells assessed as increase in apoptotic cells incubated for 24 hrs by Hoechst 33258 staining under a fluorescence microscopy; assay type: functional, cell-based
# MDA-MB-231 [22] = assay: Induction of apoptosis in human MDA-MB-231 cells assessed as upregulation of Bax expression up to 10 uM incubated for 24 hrs by Western blotting analysis; assay type: functional, cell-based; details: dose microM <=10, time 24.0 hrs
# MDA-MB-231 [23] = assay: Induction of apoptosis in human MDA-MB-231 cells assessed as cleaved caspase 3 up to 10 uM incubated for 24 hrs by Western blotting analysis; assay type: functional, cell-based; details: dose microM <=10, time 24.0 hrs
# MDA-MB-436 [24] = assay: Induction of apoptosis in human MDA-MB-436 cells assessed as upregulation of Bax expression up to 10 uM incubated for 24 hrs by Western blotting analysis; assay type: functional, cell-based; details: dose microM <=10, time 24.0 hrs
# MDA-MB-436 [25] = assay: Induction of apoptosis in human MDA-MB-436 cells assessed as upregulation of caspase 3 up to 10 uM incubated for 24 hrs by Western blotting analysis; assay type: functional, cell-based; details: dose microM <=10, time 24.0 hrs
# MDA-MB-436 [26] = assay: Antimigratory activity against human MDA-MB-436 cells assessed as suppression of migration measured after 24 hrs by Wound healing assay; assay type: functional, cell-based
# MDA-MB-436 [27] = assay: Antimigratory activity against human MDA-MB-436 cells assessed as reduction in cell migration incubated for 12 hrs by transwell assay; assay type: functional, cell-based
# MDA-MB-436 [28] = assay: Upregulation of E-cadherin protein expression in human MDA-MB-436 cells up to 10 uM incubated for 24 hrs by Western blot analysis; assay type: functional, cell-based; details: dose microM <=10, time 24.0 hrs
# [29] = molecular target: T4, Vascular endothelial growth factor receptor 3; assay: Inhibition of VEGFR3 in human MDA-MB-231 cells assessed as inhibition of STAT5 phosphorylation at 2.5 uM incubated for 24 hrs by Western blot analysis; assay type: cell-based
# [30] = molecular target: T4, Vascular endothelial growth factor receptor 3; assay: Inhibition of VEGFR3 in human MDA-MB-231 cells assessed as inhibition of ERK1/2 phosphorylation at 2.5 uM incubated for 24 hrs by Western blot analysis; assay type: cell-based
# [31] = molecular target: T4, Vascular endothelial growth factor receptor 3; assay: Inhibition of VEGFR3 phosphorylation in human MDA-MB-436 cells at 2.5 uM incubated for 24 hrs by Western blot analysis; assay type: cell-based
# [32] = molecular target: T4, Vascular endothelial growth factor receptor 3; assay: Inhibition of VEGFR3 in human MDA-MB-436 cells assessed as inhibition of ERK1/2 phosphorylation at 2.5 uM incubated for 24 hrs by Western blot analysis; assay type: cell-based
# [33] = Half life in Sprague-Dawley rat at 1 mg/kg, iv by LC-MS analysis; assay type: ADME, organism-based; details: in vivo
# [34] = Antitumor activity against human MDA-MB-231 cells xenografted in BALB/c mouse assessed as tumor growth inhibition at 50 mg/kg, po relative to control; assay type: functional; details: read-out: TGI
# [35] = Toxicity in BALB/c mouse xenografted with MDA-MB-231 cells assessed as effect on body weight at 50 mg/kg, po; assay type: organism-based; details: in vivo
# [36] = Toxicity in po dosed BALB/c mouse xenografted with MDA-MB-231 cells assessed as maximum tolerated dose; assay type: organism-based; details: in vivo
# [37] = Toxicity in BALB/c mouse xenografted with MDA-MB-231 cells assessed as creatinine level in blood at 300 mg/kg, po; assay type: organism-based; details: in vivo
# [38] = Toxicity in BALB/c mouse xenografted with MDA-MB-231 cells assessed as change in kidney at 300 mg/kg, po by hematoxylin and eosin staining based analysis; assay type: organism-based; details: in vivo
# Mus musculus = assay: Decrease in LYVE-1 level in BALB/c mouse xenografted with MDA-MB-231 cells in tumor tissue at 25 mg/kg, po by immunohistochemistry analysis; assay type: functional, organism-based
# [39] = molecular target: Vascular endothelial growth factor receptor 3 (Mus musculus) (UniProt P35917); assay: In vivo inhibition of VEGFR3 phosphorylation in BALB/c mouse xenografted with MDA-MB-231 cells assessed as decrease in ERK1/2 phosphorylation at 25 mg/kg, po by immunohistochemistry analysis; assay type: functional, organism-based
# MDA-MB-231 [40] = assay: Antimetastatic activity against human MDA-MB-231 cells injected into vein of BALB/c mouse lung metastatic model assessed as less lung metastatic nodules at 50 mg/kg, po once a day measured on day 21; assay type: functional, organism-based; details: time 21.0 day
# T4 sequence (P35916 whole entry): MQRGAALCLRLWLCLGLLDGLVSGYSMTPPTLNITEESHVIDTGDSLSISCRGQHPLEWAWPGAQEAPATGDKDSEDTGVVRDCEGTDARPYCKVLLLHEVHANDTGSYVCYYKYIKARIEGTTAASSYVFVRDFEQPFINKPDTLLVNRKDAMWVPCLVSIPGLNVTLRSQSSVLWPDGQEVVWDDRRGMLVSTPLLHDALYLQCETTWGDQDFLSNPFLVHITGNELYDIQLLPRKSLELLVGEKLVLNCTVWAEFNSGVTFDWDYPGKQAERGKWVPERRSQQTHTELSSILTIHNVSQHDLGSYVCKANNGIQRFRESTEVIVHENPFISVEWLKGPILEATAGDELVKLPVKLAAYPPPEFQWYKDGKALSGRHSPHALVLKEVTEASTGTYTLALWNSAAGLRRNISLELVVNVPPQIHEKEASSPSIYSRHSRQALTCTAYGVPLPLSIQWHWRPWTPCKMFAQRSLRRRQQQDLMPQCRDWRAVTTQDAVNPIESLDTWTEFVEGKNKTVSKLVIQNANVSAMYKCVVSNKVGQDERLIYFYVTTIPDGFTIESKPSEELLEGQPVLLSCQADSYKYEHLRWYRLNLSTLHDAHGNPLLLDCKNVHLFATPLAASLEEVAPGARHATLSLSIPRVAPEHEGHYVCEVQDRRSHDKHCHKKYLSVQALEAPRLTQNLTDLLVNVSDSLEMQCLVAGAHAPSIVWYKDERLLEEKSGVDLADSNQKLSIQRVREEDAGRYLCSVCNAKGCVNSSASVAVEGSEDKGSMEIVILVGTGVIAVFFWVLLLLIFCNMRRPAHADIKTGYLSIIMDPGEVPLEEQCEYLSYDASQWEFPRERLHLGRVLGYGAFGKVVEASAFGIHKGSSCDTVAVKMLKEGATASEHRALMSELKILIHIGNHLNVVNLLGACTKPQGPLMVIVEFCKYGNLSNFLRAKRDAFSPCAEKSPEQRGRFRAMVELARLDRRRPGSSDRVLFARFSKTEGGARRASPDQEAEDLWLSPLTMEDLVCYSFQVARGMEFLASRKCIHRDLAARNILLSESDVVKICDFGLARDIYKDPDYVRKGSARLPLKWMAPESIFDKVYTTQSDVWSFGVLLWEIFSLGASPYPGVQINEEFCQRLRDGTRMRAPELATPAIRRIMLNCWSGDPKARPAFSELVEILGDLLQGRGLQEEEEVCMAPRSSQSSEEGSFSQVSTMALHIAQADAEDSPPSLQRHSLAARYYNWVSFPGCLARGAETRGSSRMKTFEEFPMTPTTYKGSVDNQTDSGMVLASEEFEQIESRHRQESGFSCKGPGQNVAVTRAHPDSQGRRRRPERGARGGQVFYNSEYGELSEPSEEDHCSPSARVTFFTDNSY
# T3 sequence (P17948 whole entry): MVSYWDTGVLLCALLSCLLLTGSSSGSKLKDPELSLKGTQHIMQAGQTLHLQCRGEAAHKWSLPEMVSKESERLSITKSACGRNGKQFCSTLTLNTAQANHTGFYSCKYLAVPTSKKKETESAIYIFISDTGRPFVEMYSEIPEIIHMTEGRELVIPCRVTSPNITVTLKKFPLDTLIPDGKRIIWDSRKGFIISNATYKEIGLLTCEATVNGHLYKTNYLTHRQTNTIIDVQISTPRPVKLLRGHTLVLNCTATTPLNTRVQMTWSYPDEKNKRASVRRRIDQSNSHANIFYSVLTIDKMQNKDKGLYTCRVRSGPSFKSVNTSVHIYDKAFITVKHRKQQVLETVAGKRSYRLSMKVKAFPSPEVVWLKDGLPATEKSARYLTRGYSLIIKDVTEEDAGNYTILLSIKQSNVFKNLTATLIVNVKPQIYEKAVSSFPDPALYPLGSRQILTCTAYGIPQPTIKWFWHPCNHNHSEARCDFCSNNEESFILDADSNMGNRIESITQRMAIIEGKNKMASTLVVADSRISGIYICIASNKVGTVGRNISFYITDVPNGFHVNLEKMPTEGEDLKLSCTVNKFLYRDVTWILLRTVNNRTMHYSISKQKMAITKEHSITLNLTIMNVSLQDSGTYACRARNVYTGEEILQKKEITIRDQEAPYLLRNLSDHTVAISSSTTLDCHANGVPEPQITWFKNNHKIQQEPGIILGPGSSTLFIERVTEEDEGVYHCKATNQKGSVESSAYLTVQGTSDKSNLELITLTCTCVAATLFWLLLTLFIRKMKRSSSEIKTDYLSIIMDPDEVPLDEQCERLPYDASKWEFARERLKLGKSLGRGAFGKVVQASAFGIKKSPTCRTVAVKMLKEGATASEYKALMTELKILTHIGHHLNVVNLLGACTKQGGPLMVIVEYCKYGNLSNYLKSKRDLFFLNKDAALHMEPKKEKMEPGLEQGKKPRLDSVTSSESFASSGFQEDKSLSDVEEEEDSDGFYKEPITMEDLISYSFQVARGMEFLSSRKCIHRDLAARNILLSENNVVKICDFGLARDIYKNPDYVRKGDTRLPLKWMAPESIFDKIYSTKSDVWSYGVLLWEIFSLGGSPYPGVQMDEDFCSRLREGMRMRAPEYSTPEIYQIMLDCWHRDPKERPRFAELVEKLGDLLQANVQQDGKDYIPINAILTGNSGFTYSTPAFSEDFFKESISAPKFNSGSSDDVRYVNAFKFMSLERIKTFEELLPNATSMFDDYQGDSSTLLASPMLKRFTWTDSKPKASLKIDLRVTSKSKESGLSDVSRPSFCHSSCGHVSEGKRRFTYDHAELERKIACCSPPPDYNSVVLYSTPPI
smiles,measurement,setting,value
CN1CCN(c2ccc(-c3cc4c(N5CCN(C(=O)Nc6ccc(Cl)c(C(F)(F)F)c6)CC5)ncnc4s3)cc2)CC1,Activity,[1],Non-Toxic
same,IC50,MDA-MB-231 [2],2.22 µM
same,Activity,Misshapen-like kinase 1 [3],5%
same,Activity,[4],17%
same,Activity,[5],19%
same,Activity,[6],97%
same,IC50,[7],0.11 µM
same,IC50,Misshapen-like kinase 1 [8],0.335 µM
same,IC50,[9],0.7 µM
same,IC50,[10],> 10 µM
same,IC50,[11],0.25 µM
same,Activity,HDLEC [12],Active
same,Activity,HDLEC [13],Active
same,Activity,HDLEC [14],Active
same,inhibition,[15],Dose-Dependent Effect
same,inhibition,[16],Dose-Dependent Effect
same,inhibition,[17],Dose-Dependent Effect
same,inhibition at 2.5 µM,MDA-MB-436 [18],100%
same,Activity,MDA-MB-231 [19],19.7%
same,Activity,MDA-MB-436 [20],36.7%
same,Activity,MDA-MB-436 [21],Dose-Dependent Effect
same,Activity,MDA-MB-231 [22],Active
same,Activity,MDA-MB-231 [23],Active
same,Activity,MDA-MB-436 [24],Active
same,Activity,MDA-MB-436 [25],Active
same,Activity,MDA-MB-436 [26],Active
same,Activity,MDA-MB-436 [27],Active
same,Activity,MDA-MB-436 [28],Active
same,inhibition,[29],Active
same,inhibition,[30],Active
same,inhibition,[31],Active
same,inhibition,[32],Active
same,half-life,[33],13.1 h
same,inhibition in vivo at 50 mg/kg,[34],61.9%
same,Activity,[35],Non-Toxic
same,MTD,[36],300 mg/kg
same,Activity,[37],Non-Toxic
same,Activity,[38],Non-Toxic
same,Activity,Mus musculus,Active
same,Activity,[39],Active
same,Activity,MDA-MB-231 [40],Active
